Assay results published in US20250129045A1, “SMALL MOLECULE PIM AND MTOR KINASE INHIBITOR AND METHODS OF USE THEREOF” (Arizona Board of Regents on Behalf of the University of …, priority 2022, published 2025).
“Also recorded” adds a separate entry of the source. Where two headings read alike, the source gives them in different places.

Assays:
PC3-LN4 cells = experiment: P-body (PB) number in PC3-LN4 GFP-EDC3 cells; assay type: cell-based, human; conditions: 6 h
Description: FIGS. 7A-7I show inhibition of VBT5445 (VBT) on Pim1 and EDC3 binding and phosphorylation. FIG. 7A: In vitro co-precipitation (Co-PPT) assay was performed with recombinant EDC3 and biotinylated Pim1 using Streptavidin beads with increasing concentrations of the Pim inhibitor VBT5445 (VBT). FIG. 7B: Kinase assays were performed with recombinant EDC3 and Pim1 with increasing concentrations of VBT. FIG. 7C: Cell lysates from PC3-LN4 cells cultured with DMSO, 10 μM VBT, 3 μM AZD5363 (AKTi) and the combination for 6 hrs were subjected to western blotting (WB). […] WBs were performed using the indicated antibodies. FIG. 7E: PC3-LN4 cells were seeded into 48 well plate and incubated with either DMSO, VBT, AZD5363 or the combination, for 4.5 days. A real-time imaging system (IncuCyte™) was used to measure cell proliferation using a non-label cell monolayer confluence approach. FIG. 7F-7H: GFP image in PC3 LN4 GFP EDC3 expressing cells treated with PIMi: VBT (5 μM) and VBT (5 μM)+AZD5363 (3 μM) for 6 hrs.
To measure PB numbers, PC3-LN4 PCa cells containing a CRISPR/Cas total knock-out of EDC3 were stably transduced with GFP-EDC3. When localized in PBs, GFP spots could be quantified. PBs were quantified at the University of Colorado Center for Drug Discovery using an Opera Phenix Plus high content screening system (PerkinElmer) Perkin Elmer G3 robotic system after drug treatment. Assays were carried out in quadruplicate and the mean number of PBs per cell and cell area calculated. An example of this assay is shown using […] buffered saline (HBSS) to induce PB formation.
Immunofluorescence: Immunofluorescence (IF) staining was performed on PC3-LN4 cells stably expressing EDC3-GFP. 1×10^4 cells were seeded in each chamber of an 8 well chamber slide (Nunc Lab-Tek II Chamber Slide System, Life Technologies) and cultured for 48 h. After attaching to the chamber slides cells were treated with DMSO, VB-5445 ([…]), AZD5363 (3 μM), or the combination for 6 h. Cells were then fixed with 4% paraformaldehyde in PBS for 15 min and subsequently permeabilized with 0.2% Triton X-100 in PBS. Cells were stained with diluted DAPI (1:4000) in 1% nor-mal goat serum in PBS. Cells were mounted with Prolong Gold Antifade mounting medium (Molecular Probes).

[1] = system: PANC1 pancreatic cancer cells; experiment: Growth inhibition of PANC1 pancreatic cancer cells; assay type: cell-based
Description: Cell growth assay: Tumor cells were seeded into 48 well plates (1000 cells/well) and treated with varied agents. The Incucyte real-time imaging system (Incucyte) was used to measure cell proliferation using a non-label cell monolayer confluence approach. The images were captured every 12 h. Graphs were generated using an integrated confluence metric as an alternative for cell numbers. At the end of the study cell growth was visualized by crystal violet staining.
Because of ease of growth, PANC1 pancreatic cancer cells were used to test the activity of derivatives of VBT-5445 (FIG. 14). […] Using a doxycycline inducible Pim kinase vector in these tumor cells, this inhibition of phosphorylation was proportional to the level of Pim in these cells (FIG. 9). […] Inhibition of mTORC1 is known to stimulate the feedback activation of mTORC2 leading to AKT phosphorylation. […] The effect of these compounds on mTORC1 and 2 was still evident in PC3-LN4 cells that contained a knockout (KO) using CRISPR/CAS9 of either TSC2 or DEPDC5 (FIG. 12, lanes 4-9). TSC2 KO activated the Rheb GTPase while DEPDC5 KO activated the RAG GTPase both of which stimulate mTORC1 activity. Thus, GRG compounds were capable of inhibiting mTORC1 activity even when this kinase was highly activated.

SMILES: O=c1c(CNCc2cc(Br)ccn2)cc2ccc(Cl)cc2n1CCOc1ccccc1 [GRG-1-34, 3-((((4-bromopyridin-2-yl)methyl)amino)methyl)-7-chloro-1-(2-phenoxyethyl) quinolin-2 (1H)-one]
- number of P-bodies, with AKT inhibitor AZD5363 added (PC3-LN4 cells; combination with AZD5363 (3 μM), listed as VBT 1-34): further increased the number of P-bodies; also recorded: further increases P-bodies
- number of P-bodies (PC3-LN4 cells; compound alone): increases the number of P-bodies
- growth inhibitory activity against PANC1 pancreatic cancer cells [1]: most active
- growth inhibitory activity against PANC1 pancreatic cancer cells ([1]; listed as VBT 1-34): inhibits the growth; also recorded: shows activity
